Assay results taken from patent US7223782B2, “Pyrazole-amides and -sulfonamides” (Icagen, Inc., priority 2001, dated 2007).

Biological target: T1, PN3 (Homo sapiens, UniProt Q9Y5Y9)
T1 construct: expressed in transfected cells
Assay: 14C Guanidinium Ion Influx Binding Assay (flux assay)
Format: cell-based
Details: activity towards PN3, PN3 stably expressed in a host cell line, deltamethrine 10 μM
Description: ^14C Guanidinium Ion Influx Binding Assay
PN3 stably expressed in a host cell line were maintained in DMEM with 5% fetal bovine serum and 300 μg/ml G-418. The cells were subcultured and grown to confluence in 96-well plates 24–48 h before each experiment. After the growth medium was removed, the cells were washed with warm buffer (25 mM Hepes-Tris, 135 mM choline chloride, 5.4 mM potassium chloride, 0.98 mM magnesium sulfate, 5.5 mM glucose, and 1 mg/ml BSA, pH 7.4) and incubated in buffer on a 36° C. slide warmer for approximately 10 minutes. Various concentrations of the test compounds or standard sodium channel blockers (10 μM) and then deltamethrine (10 μM) were added to each well. After the cells were exposed to deltamethrine for 5 minutes, 5 μM of ^14C-guanidinium was added, incubated with the radioligand (30–60 min), washed with ice-cold buffer, and dissolved in 0.1N sodium hydroxide. The radioactivity and the protein concentration of each cell lysate were determined by liquid scintillation counting and the protein assay using Pierce BCA reagent.

T1 sequence (Q9Y5Y9 whole entry, species assumed): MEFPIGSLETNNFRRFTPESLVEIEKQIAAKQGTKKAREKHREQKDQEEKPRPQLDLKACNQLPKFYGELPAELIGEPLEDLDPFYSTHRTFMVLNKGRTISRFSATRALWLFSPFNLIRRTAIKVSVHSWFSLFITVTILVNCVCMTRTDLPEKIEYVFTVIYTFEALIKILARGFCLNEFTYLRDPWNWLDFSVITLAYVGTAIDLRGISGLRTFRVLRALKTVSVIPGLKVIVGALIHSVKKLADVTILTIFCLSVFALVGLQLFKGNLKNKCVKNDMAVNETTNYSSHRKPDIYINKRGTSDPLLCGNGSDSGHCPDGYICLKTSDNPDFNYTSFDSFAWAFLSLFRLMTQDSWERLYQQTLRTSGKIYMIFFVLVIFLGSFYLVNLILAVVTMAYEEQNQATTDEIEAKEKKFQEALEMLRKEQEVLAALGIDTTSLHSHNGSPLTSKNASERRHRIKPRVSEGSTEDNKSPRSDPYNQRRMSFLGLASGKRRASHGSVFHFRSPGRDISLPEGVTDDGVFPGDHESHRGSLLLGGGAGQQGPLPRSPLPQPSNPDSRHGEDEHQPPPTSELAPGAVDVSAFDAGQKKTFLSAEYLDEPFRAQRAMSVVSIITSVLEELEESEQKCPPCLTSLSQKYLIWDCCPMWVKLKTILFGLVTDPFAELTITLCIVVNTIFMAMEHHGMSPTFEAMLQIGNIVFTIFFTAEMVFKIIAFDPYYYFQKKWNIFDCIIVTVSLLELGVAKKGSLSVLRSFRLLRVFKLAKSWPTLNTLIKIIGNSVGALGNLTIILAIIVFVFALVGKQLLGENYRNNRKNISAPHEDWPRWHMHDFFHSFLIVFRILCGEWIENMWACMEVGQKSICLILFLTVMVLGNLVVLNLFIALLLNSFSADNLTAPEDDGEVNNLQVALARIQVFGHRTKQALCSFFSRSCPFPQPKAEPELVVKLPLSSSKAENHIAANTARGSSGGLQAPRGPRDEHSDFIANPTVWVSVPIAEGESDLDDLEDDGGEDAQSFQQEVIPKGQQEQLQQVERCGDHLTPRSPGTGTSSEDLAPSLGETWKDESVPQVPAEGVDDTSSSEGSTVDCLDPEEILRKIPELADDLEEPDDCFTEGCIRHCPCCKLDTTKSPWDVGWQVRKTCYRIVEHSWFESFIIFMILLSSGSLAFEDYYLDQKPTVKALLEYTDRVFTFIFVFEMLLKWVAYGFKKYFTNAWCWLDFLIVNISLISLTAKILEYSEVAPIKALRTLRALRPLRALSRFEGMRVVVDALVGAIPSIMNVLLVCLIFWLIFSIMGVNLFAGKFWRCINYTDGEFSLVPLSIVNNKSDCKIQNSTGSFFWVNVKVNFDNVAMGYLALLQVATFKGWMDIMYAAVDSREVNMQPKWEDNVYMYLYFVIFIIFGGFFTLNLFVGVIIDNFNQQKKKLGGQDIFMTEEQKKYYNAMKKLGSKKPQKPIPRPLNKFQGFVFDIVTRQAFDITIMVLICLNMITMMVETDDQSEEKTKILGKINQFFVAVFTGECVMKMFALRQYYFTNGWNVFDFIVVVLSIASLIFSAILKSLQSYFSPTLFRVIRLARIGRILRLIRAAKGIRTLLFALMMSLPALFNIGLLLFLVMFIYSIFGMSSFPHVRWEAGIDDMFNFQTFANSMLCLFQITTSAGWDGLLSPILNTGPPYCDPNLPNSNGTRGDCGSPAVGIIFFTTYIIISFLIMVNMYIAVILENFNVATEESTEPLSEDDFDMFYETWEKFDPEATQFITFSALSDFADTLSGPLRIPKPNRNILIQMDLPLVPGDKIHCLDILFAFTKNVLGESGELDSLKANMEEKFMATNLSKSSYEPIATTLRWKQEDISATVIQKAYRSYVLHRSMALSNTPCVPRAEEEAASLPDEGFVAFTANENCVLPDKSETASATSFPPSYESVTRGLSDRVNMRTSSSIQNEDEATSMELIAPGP

SMILES | IC50 [µM]
Cn1nc(-c2ccccc2)cc1NC(=O)c1cnn(-c2ccc(Cl)cc2)c1C(F)(F)F [Compound 20, 1-(4-Chloro-phenyl)-5-trifluoromethyl-1H-pyrazole-4-carboxylic acid (2-methyl-5-phenyl-2H-pyrazol-3-yl)-amide] | 0.1 to 4
O=C(Nc1ccncc1)c1cnn(-c2ccc(Cl)cc2)c1C(F)(F)F [Compound 23, 1-(4-Chloro-phenyl)-5-trifluoromethyl-1H-pyrazole-4-carboxylic acid pyridin-4-ylamide] | 4.1 to 10
CCCc1c(C(=O)NC(Cc2ccccc2)C(=O)OC)cnn1-c1ccccc1 (stereo not shown) [Compound 39, 3-Phenyl-2-[(1-phenyl-5-propyl-1H-pyrazole-4-carbonyl)-amino]-propionic acid methyl ester] | 0.1 to 4
CS(=O)(=O)c1cccc(NC(=O)c2cnn(-c3ccc(Cl)cc3)c2C(F)(F)F)c1 [Compound 154, 1-(4-Chloro-phenyl)-5-trifluoromethyl-1H-pyrazole-4-carboxylic acid (3-methanesulfonyl-phenyl)-amide] | 0.1 to 4
O=C(NCc1ccc(C(F)(F)F)cc1)c1cnn(-c2ccccc2)c1C(F)(F)F [Compound 444, 1-Phenyl-5-trifluoromethyl-1H-pyrazole-4-carboxylic acid 4-trifluoromethyl-benzylamide] | 4.1 to 10
O=C(NCCc1cccc(Cl)c1)c1cnn(-c2cccc(Cl)c2)c1 [Compound 449, 1-(3-Chloro-phenyl)-1H-pyrazole-4-carboxylic acid [2-(3-chloro-phenyl)-ethyl]-amide] | 0.1 to 4
CN(C)CCNS(=O)(=O)c1cccc(NC(=O)c2cnn(-c3ccc(Cl)cc3)c2C(F)(F)F)c1 [Compound 1175, 1-(4-Chloro-phenyl)-5-trifluoromethyl-1H-pyrazole-4-carboxylic acid [3-(2-dimethylamino-ethylsulfamoyl)-phenyl]-amide] | 4.1 to 10

Continued, values first:

IC50 [µM] | SMILES
10.1 to 30 | O=C(NCCc1ccccc1)c1cnn(-c2ccc(Cl)cc2)c1C(F)(F)F [Compound 114, 1-(4-Chloro-phenyl)-5-trifluoromethyl-1H-pyrazole-4-carboxylic acid phenethyl-amide]
0.1 to 4 | O=C(NCCc1cccc(F)c1)c1cnn(-c2ccc(Cl)cc2)c1C(F)(F)F [Compound 323, 1-(4-Chloro-phenyl)-5-trifluoromethyl-1H-pyrazole-4-carboxylic acid [2-(3-fluoro-phenyl)-ethyl]-amide]
0.1 to 4 | O=C(NCCc1ccc(F)cc1)c1cnn(-c2ccc(Cl)cc2)c1C(F)(F)F [Compound 411, 1-(4-Chloro-phenyl)-5-trifluoromethyl-1H-pyrazole-4-carboxylic acid [2-(4-fluoro-phenyl)-ethyl]-amide]
0.1 to 4 | O=C(NCCc1ccccc1Cl)c1cnn(-c2ccc(Cl)cc2)c1C(F)(F)F [Compound 414, 1-(4-Chloro-phenyl)-5-trifluoromethyl-1H-pyrazole-4-carboxylic acid [2-(2-chloro-phenyl)-ethyl]-amide]
0.1 to 4 | O=C(NCCc1cccc(Cl)c1)c1cnn(-c2ccc(F)cc2)c1C(F)(F)F [Compound 480, 1-(4-Fluoro-phenyl)-5-trifluoromethyl-1H-pyrazole-4-carboxylic acid [2-(3-chloro-phenyl)-ethyl]-amide]
0.1 to 4 | NS(=O)(=O)c1cccc(NC(=O)c2cnn(-c3ccc(Cl)cc3)c2C(F)(F)F)c1 [Compound 1054, 1-(4-Chloro-phenyl)-5-trifluoromethyl-1H-pyrazole-4-carboxylic acid (3-sulfamoyl-phenyl)-amide]
